Measurements reported in patent US8795632B2, “Disease animal model for chronic pain” (Astellas Pharma Inc., priority 2008, dated 2014).

Assays:
Assay type in all cases: in vivo, rat
Conditions in all cases: reserpine 3 mg/kg single s.c.
Sprague-Dawley rats [1] = experiment: Muscle pressure pain threshold value after reserpine single administration
Experimental: Male Sprague-Dawley rats (Japan SLC, Hamamatsu, Japan) were used. Measurement of muscle pressure pain threshold value was carried out in the same manner as in Example 1. That is, a pressure stimulus of gradually increasing to 250 g at the maximum was added to the right hind leg gastrocnemius muscle of each rat. […] The measurement was carried out 3 times at each point of time of the measurement, and the average was used as the measurement value.
Influences of the reserpine single administration upon the muscle pressure pain threshold value, skin pain sensation threshold value, cold sensitivity and heat sensitivity were examined in accordance with the following protocol. […] The muscle pressure pain threshold value, skin pain sensation threshold value, cold sensitivity and heat sensitivity before the reserpine treatment (base lines) were measured and then they were divided into a solvent (0.5% acetic acid aqueous solution) group and a reserpine (3 mg/kg) group (the number of animals per group was 6). […] The muscle pressure pain threshold value, skin pain sensation threshold value, cold sensitivity and heat sensitivity of each rat were measured at the points of measurement time of acute phase after administration of the solvent or reserpine (2, 4, 8 and 24 hours) and chronic phase (2, 3, 5, 7, 10, 14 and 21 days).
(§1) All of the measured values were expressed as average value±standard error. […]

Sprague-Dawley rats [2] = experiment: Skin pain sensation threshold value after reserpine single administration
Experimental: Measurement of the skin pain sensation threshold value was carried out in the same manner as in Example 1. That is, this was measured using a series of von Frey filaments having different diameter which can add a constant pressure. […] The von Frey filament was applied using the up and down method. That is, by firstly applying a filament of about middle diameter, a filament having one rank smaller diameter was applied when the withdrawal reaction was observed or a filament having one rank larger diameter was applied when the withdrawal reaction was not observed. The skin pain sensation threshold value at each point of time was calculated as a hind paw withdrawal reaction threshold value (g).
Influences of the reserpine single administration upon the muscle pressure pain threshold value, skin pain sensation threshold value, cold sensitivity and heat sensitivity were examined in accordance with the following protocol. A total of 12 male rats were used. The muscle pressure pain threshold value, skin pain sensation threshold value, cold sensitivity and heat sensitivity before the reserpine treatment (base lines) were measured and then they were divided into a solvent (0.5% acetic acid aqueous solution) group and a reserpine (3 mg/kg) group (the number of animals per group was 6). […] The muscle pressure pain threshold value, skin pain sensation threshold value, cold sensitivity and heat sensitivity of each rat were measured at the points of measurement time of acute phase after administration of the solvent or reserpine (2, 4, 8 and 24 hours) and chronic phase (2, 3, 5, 7, 10, 14 and 21 days).
All of the measured values were expressed as average value±standard error. Statistical significance test of the measured values between the reserpine administration groups and the solvent administration group at each point of time was carried out by the two-way analysis of variance and the Bonferroni method. Probability value (P) of less than 5% was judged as statistically significant (P<0.05 was expressed as * in the graphs).

Sprague-Dawley rats [3] = experiment: Heat sensitivity (Hargreaves method) after reserpine single administration
Experimental: Measurement of the heat sensitivity was carried out by the method of Hargreaves et al. (Hargreaves et al., Pain, 32, 77-88, 1988). A transparent measuring box was put on a glass plate supported with platforms and a rat was put therein and acclimatized. A mobile infrared heat source was arranged under the glass plate and focused on the plantar surface of the right hind paw of the rat. A latency time required for the rat to show a withdrawal reaction of right hind leg from the heat source was measured as a withdrawal latency time and used as the index of heat sensitivity. According to this measuring system, shorter withdrawal latency time represents acceleration of the skin heat sensitivity.
Influences of the reserpine single administration upon the muscle pressure pain threshold value, skin pain sensation threshold value, cold sensitivity and heat sensitivity were examined in accordance with the following protocol. A total of 12 male rats were used. The muscle pressure pain threshold value, skin pain sensation threshold value, cold sensitivity and heat sensitivity before the reserpine treatment (base lines) were measured and then they were divided into a solvent (0.5% acetic acid aqueous solution) group and a reserpine (3 mg/kg) group (the number of animals per group was 6). […]
as §1

## COC(=O)[C@H]1[C@H]2C[C@@H]3c4[nH]c5cc(OC)ccc5c4CCN3C[C@H]2C[C@@H](OC(=O)c2cc(OC)c(OC)c(OC)c2)[C@@H]1OC [reserpine]
Sprague-Dawley rats [1]; after 2, 3, 5, 7 and 10 days
  muscle pressure pain threshold value: significantly reduced
Sprague-Dawley rats [1]; after 2, 4, 8 and 24 hours
  muscle pressure pain threshold value: significantly increased
Sprague-Dawley rats [2]
  time after administration at which transient acute-phase tactile allodynia recovers: 4 h
Sprague-Dawley rats [2]; 2, 3, 5, 7, 10, 14 and 21 days after administration
  skin pain sensation threshold value: significantly reduced
Sprague-Dawley rats [2]; after 2 hours
  skin pain sensation threshold value: significantly reduced
Sprague-Dawley rats [3]
  time after administration at which transient acute-phase acceleration of heat sensitivity recovers: 8 h
Sprague-Dawley rats [3]; 2 and 4 hours and 2 and 5 days after administration
  heat sensitivity: withdrawal latency time: significantly shortened
